# Values of other authors in patent publication US9920014B2, “Selective inhibition of bacterial topoisomerase I” (THE FLORIDA INTERNATIONAL BOARD OF TRUSTEES MODESTO A. …, priority 2013, dated 2018).
# Target: E. coli DNA topoisomerase I (Escherichia coli, UniProt P06612)
# Conditions: reported by Bansal et al. 2012; read-out: E. coli Topo I IC50 (literature value); cited from earlier work
# Sequence of E. coli DNA topoisomerase I (P06612 whole entry): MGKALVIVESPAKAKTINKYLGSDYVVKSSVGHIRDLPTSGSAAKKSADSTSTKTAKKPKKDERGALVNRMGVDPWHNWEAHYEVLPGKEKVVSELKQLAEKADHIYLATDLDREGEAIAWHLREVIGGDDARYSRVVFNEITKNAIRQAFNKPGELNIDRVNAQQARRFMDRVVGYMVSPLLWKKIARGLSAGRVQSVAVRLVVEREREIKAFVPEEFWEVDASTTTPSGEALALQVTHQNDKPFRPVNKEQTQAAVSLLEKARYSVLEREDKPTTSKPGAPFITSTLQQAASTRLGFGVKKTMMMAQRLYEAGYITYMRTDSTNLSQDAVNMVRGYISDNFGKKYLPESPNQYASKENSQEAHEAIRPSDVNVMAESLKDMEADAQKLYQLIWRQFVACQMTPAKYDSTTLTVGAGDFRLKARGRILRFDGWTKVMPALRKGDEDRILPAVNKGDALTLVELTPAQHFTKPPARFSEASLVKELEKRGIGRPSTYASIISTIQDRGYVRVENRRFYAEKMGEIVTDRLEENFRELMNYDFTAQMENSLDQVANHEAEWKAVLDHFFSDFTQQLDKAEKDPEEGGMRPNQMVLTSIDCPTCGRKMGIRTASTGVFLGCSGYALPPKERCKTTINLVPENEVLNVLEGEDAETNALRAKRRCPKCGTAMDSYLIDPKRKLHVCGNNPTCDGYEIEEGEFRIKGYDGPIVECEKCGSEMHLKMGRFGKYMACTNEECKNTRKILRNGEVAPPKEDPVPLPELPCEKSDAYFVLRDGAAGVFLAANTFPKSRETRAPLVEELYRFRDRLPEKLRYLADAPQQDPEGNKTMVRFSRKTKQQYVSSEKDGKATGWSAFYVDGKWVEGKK
compound,measurement,value
COc1ccc(-c2nc3ccc(-c4nc5ccc(N6CCN(C)CC6)cc5[nH]4)cc3[nH]2)cc1OC [DMA],IC50,3.8 µM
